Test results from patent publication US5760241A, “Thiol derivatives with metallopeptidase inhibitory activity” (priority 1996, dated 1998).

Legend:
ACE (SHR lungs) = experiment: Ex vivo ACE-inhibitory activity in lungs of treated SHR; design: species or system spontaneously hypertensive rats (SHR)
Procedure: (§1) The ex vivo ACE/NEP-inhibitory activity of the compounds of formula I, in particular, was evaluated by considering the enzymatic activity in tissue homogenates (lung and kidney for the ACE- and NEP-inhibitory activity, respectively) from spontaneously hypertensive rats (SHR), treated with the tested compounds by intravenous or oral route.
b) ACE-inhibitory activity
The ex vivo ACE-inhibitory activity was evaluated by using a radiometric assay method, as reported in the literature by J. W. Ryan et al. in Biochem. J. (1977), 167, 501-504.
The inhibitory activity of the compounds of formula I was evaluated in lungs of spontaneously hypertensive rats (SHR), 5 minutes after i.v. injection (0.6, 0.64 and 21 μmoles/kg) and 30 minutes, 60 minutes and 4 hours after oral administration (30 μmoles/kg) of the tested compounds.
After the removal of the lungs from SHR, the lung tissue was homogenized and incubated for 2 hours at 37° C. in the presence of [^3 H]Hyp-Gly-Gly, as a substrate.
The reaction was stopped by adding hydrochloric acid.
The released radiolabelled hyppuric acid was extracted with ethyl acetate and counted by liquid scintillation spectrometry, according to conventional methods.
The ACE-inhibitory activity of the tested compounds was expressed as percentage of ACE-inhibition in SHR lungs.
(§2) As an example, the percentages of basal enzymatic activity obtained in the ex vivo tests after the administration of compounds 29 and 41, as representative compounds of formula I, and of the comparison compounds R-1, R-2, R-3 and R-4 are reported in the following table 2.

NEP (SHR kidneys) = experiment: Ex vivo NEP-inhibitory activity in kidneys of treated SHR; design: species or system spontaneously hypertensive rats (SHR)
Procedure: as §1
a) NEP-inhibitory activity
The ex vivo NEP-inhibitory activity was evaluated according to the procedure reported in the literature by M. Orlowsky et al., in Biochemistry 1981, 20, 4942-4950.
The inhibitory activity of the compounds of formula I was evaluated in kidneys of spontaneously hypertensive rats (SHR), 5 minutes after i.v. injection (0.6, 0.64 and 21 μmoles/kg) and 30 minutes, 60 minutes and 4 hours after oral administration (30 μmoles/kg) of the tested compounds.
After the removal of the kidneys from SHR, the renal tissue was homogenized and incubated for 15 minutes at 37° C. in the presence of Glutaryl-Ala-Ala-Phe-2-naphthylamide (GAAP), as a substrate, and aminopeptidase M at pH 7.6.
The reaction was stopped by adding an aqueous solution at 10% of trichloroacetic acid.
The released 2-naphthylamine was determined by adding fast garnet dye (2 ml).
Enzyme reaction rates were determined by measuring the increase in the optical density at 524 nm (OD524) with respect to a standard obtained with 2-naphthylamine complexed with fast garnet.
The NEP-inhibitory activity of the tested compounds was expressed as percentage of NEP-inhibition in SHR kidneys.
as §2

Row | SMILES | ACE-inhibition (lungs), 30 minutes (ACE (SHR lungs); oral 30 μmoles/kg) | ACE-inhibition (lungs), 4 hours (ACE (SHR lungs); oral 30 μmoles/kg) | NEP-inhibition (kidneys), 30 minutes (NEP (SHR kidneys); oral 30 μmoles/kg) | NEP-inhibition (kidneys), 4 hours (NEP (SHR kidneys); oral 30 μmoles/kg) | ACE-inhibition (lungs), 5 minutes (ACE (SHR lungs); i.v. 0.6 μmoles/kg) | ACE-inhibition (lungs), 5 minutes (ACE (SHR lungs); i.v. 21 μmoles/kg) | ACE-inhibition (lungs), 60 minutes (ACE (SHR lungs); oral 30 μmoles/kg, 60 minutes) | NEP-inhibition (kidneys), 5 minutes (NEP (SHR kidneys); i.v. 0.6 μmoles/kg) | NEP-inhibition (kidneys), 5 minutes (NEP (SHR kidneys); i.v. 21 μmoles/kg) | NEP-inhibition (kidneys), 60 minutes (NEP (SHR kidneys); oral 30 μmoles/kg, 60 minutes)
1 | O=C(N[C@@H](Cc1ccccc1)C(=O)O)C(CS)Cc1ccc2c(c1)OCO2 (stereo partly drawn) [R-1, N-[3-mercapto-2-(3,4-methylenedioxyphenyl)methyl-propionyl]-(S)-phenylalanine] | 25% | 20% | 5% | not active |  |  |  |  |  | 
2 | O=C(N[C@@H](Cc1ccc(O)cc1)C(=O)O)C(CS)Cc1ccc2c(c1)OCO2 (stereo partly drawn) [R-2, N-[3-mercapto-2-(3,4-methylenedioxyphenyl)methyl-propionyl]-(S)-tyrosine] | 30% | 25% | 30% | not active |  |  |  |  |  | 
3 | CC(CS)C(=O)N[C@@H](Cc1ccc(O)cc1)C(=O)O (stereo partly drawn) [R-3, N-(3-mercapto-2-methylpropanoyl)-L-tyrosine] | 25% | 20% | 10% | 5% |  |  |  |  |  | 
4 | CC(CS)C(=O)N[C@@H](Cc1c[nH]c2ccccc12)C(=O)O (stereo partly drawn) [R-4, N-(3-mercapto-2-methylpropanoyl)-L-triptophan] | 25% | 10% | not active | not active |  |  |  |  |  | 
5 | O=C(N[C@@H](Cc1ccc(-c2nccs2)cc1)C(=O)O)[C@@H](CS)Cc1ccccc1 [compound 29, N-[(2S)-3-mercapto-2-phenylmethylpropionyl]-4-(2-thiazolyl)-L-phenylalanine] | 60% | 45% | 55% | 40% | 15% | 72% | 36% | 34% | 49% | 39%
